This passage reports IC50 results from patent US20100305113A1, “Substituted Imidazopyridazines as Lipid Kinase Inhibitors” (priority 2007, published 2010).

Common to all, as to format: biochemical
Holding throughout (settings): Enzymatic Data

Assay [1] deals with T1, PI3K gamma (Homo sapiens, UniProt P48736).
T1 construct: His tag (C); made in house; host or cells: construct from Roger Williams lab (MRC LMB); baculovirus (pVL1393); Tn5 (Trichoplusia ni) or TiniPro insect cells
In words: PI3K gamma enzymatic assay (Kinase-Glo luminescence). Put shortly:
(§1)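 Kinase-Glo ATP-depletion luminescence with 1 μM ATP and 10 μg/mL phosphatidylinositol in pH 7.5 Tris buffer; 10 nM PI3Kα incubated 60 min, 150 nM PI3Kγ 120 min, at room temperature. IC50 by 4-parameter logistic fit over 8 concentrations.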

Assay [2] concerns the target T2, PI3K alfa (Homo sapiens, UniProt P42336).
T2 construct: p85(iSH2) fusion partner (same polypeptide; see partner chain) (N); 12x Gly linker (N); His tag (C); made in house; host or cells: baculovirus; Tn5 (Trichoplusia ni) or TiniPro insect cells
Briefly: PI3K alfa enzymatic assay (Kinase-Glo luminescence). The gist of the method: as §1

Assay [3] has as its target T3, PI3K beta (Homo sapiens, UniProt P42338).
T3 construct: for the full-length p110-b subunit are generated and fused by overlapping PCR; p85(iSH2) fusion partner (same polypeptide; see partner chain) (N); Gly linker (N); His tag (C); made in house; host or cells: baculovirus; Tn5 (Trichoplusia ni) or TiniPro insect cells
In words: PI3K beta enzymatic assay (Kinase-Glo luminescence). Put shortly: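 Full-length p110β with p85 iSH2 (His-tagged) at 25 nM, 10 μg/mL phosphatidylinositol and 1 μM ATP, in pH 7.5 Tris with 3 mM MgCl2, 60 min at room temperature. Remaining ATP read by Kinase-Glo luminescence; IC50 from 4-parameter logistic fit over 8 concentrations.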

The target of assay [4] is T4, PI3K delta (Homo sapiens, UniProt O00329).
T4 construct: for the full-length p110-d subunit are generated and fused by overlapping PCR; p85(iSH2) fusion partner (same polypeptide; see partner chain) (N); Gly linker (N); His tag (C); made in house; host or cells: baculovirus; Tn5 (Trichoplusia ni) or TiniPro insect cells
In words: PI3K delta enzymatic assay (Kinase-Glo luminescence). The gist of the method: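 10 nM PI3Kδ p85(iSH2)-Gly linker-full-length p110δ His-tagged construct with 10 µg/mL phosphatidylinositol and 1 µM ATP. Buffer: 10 mM Tris pH 7.5, 3 mM MgCl2, 50 mM NaCl, 0.05% CHAPS, 1 mM DTT; 60 min RT. Kinase-Glo luminescence; IC50 from 4-parameter logistic fit over 8 concentrations.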

T2 sequence (P42336 with tags, fused parts or gaps limits assumed): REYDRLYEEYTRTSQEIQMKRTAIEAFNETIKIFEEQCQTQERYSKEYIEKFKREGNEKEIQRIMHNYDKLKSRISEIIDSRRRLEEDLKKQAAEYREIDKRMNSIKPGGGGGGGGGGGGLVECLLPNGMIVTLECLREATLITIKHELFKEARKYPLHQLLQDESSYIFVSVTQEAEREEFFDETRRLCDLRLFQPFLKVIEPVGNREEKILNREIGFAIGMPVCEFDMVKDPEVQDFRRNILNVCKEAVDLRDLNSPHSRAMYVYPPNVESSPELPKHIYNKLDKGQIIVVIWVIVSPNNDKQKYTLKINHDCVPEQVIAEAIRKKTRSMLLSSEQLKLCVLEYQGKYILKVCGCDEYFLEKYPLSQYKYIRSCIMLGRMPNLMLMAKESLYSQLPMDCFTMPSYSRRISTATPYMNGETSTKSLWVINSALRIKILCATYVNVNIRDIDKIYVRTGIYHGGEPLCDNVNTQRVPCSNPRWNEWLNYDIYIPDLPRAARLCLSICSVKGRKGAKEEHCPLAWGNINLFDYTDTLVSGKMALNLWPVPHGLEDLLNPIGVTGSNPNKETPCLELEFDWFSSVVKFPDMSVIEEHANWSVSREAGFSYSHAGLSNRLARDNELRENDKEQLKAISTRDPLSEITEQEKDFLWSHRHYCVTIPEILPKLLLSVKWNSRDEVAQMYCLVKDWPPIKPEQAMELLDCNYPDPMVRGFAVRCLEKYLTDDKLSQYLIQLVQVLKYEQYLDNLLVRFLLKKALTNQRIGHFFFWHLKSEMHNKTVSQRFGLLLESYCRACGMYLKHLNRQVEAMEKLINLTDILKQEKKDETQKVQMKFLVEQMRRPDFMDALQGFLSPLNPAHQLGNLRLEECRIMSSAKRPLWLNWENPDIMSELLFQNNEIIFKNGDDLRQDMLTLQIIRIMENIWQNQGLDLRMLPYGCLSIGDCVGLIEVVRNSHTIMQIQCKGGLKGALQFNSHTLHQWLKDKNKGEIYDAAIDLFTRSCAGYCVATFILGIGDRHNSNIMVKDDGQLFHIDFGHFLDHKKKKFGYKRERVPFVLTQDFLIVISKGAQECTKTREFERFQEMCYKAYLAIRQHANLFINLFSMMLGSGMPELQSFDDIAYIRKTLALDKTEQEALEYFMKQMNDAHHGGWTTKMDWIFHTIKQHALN
T3 sequence (P42338 with tags, fused parts or gaps limits assumed): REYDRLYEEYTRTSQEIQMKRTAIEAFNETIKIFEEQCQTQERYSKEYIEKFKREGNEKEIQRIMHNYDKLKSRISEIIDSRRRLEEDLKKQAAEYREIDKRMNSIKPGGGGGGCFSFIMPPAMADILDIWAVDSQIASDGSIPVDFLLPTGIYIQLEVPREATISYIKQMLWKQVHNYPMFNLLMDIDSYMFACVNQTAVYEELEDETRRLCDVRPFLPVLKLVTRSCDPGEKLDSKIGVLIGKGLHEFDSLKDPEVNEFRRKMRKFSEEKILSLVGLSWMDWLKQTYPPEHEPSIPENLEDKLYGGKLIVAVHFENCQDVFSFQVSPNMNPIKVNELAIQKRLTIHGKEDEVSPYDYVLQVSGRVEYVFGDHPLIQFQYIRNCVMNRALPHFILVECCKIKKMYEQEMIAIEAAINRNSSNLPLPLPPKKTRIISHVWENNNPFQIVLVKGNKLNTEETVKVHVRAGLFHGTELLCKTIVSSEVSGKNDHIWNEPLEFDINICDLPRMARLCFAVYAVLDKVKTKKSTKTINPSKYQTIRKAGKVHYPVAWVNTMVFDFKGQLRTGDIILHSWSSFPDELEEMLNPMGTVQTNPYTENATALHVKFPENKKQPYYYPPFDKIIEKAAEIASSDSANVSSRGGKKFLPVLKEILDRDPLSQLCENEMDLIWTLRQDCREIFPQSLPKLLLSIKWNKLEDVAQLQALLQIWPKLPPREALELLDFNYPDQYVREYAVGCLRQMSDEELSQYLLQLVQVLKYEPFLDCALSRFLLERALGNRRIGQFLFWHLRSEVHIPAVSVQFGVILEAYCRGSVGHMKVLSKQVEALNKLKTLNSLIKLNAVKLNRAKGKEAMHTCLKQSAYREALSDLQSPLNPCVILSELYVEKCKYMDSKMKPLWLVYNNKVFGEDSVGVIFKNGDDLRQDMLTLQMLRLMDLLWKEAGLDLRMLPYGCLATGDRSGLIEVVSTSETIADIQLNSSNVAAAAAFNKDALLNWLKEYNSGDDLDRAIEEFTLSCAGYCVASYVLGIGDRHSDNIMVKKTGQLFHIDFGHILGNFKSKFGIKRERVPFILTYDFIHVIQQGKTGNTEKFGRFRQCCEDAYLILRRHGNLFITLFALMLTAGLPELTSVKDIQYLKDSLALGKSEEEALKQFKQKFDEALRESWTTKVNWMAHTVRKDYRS
T1 sequence (P48736 144-1102 limits assumed): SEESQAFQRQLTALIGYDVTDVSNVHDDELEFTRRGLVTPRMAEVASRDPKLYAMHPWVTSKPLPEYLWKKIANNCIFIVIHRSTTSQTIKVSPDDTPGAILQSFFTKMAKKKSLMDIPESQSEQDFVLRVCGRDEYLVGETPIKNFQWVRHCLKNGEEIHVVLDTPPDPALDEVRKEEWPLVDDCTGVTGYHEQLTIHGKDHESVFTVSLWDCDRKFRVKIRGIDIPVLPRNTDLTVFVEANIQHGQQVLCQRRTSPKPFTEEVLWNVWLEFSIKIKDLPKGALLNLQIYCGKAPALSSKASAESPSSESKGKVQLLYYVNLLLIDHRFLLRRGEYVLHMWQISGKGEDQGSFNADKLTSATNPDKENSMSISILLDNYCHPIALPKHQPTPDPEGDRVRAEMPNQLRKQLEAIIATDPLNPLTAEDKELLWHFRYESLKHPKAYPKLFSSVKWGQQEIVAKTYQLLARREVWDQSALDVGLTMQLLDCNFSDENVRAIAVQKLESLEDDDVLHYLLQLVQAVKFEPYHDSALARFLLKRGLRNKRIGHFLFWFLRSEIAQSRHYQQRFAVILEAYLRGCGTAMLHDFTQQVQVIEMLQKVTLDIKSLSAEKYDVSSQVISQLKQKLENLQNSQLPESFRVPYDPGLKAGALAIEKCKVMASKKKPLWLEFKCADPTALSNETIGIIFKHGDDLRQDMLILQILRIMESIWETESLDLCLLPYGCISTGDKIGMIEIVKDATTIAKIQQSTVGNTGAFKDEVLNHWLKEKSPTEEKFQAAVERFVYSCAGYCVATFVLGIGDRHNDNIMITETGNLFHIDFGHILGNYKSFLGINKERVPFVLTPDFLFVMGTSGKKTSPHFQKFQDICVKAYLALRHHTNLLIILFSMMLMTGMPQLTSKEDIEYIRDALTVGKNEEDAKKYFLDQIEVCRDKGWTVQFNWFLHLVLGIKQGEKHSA
T4 sequence (O00329 with tags, fused parts or gaps limits assumed): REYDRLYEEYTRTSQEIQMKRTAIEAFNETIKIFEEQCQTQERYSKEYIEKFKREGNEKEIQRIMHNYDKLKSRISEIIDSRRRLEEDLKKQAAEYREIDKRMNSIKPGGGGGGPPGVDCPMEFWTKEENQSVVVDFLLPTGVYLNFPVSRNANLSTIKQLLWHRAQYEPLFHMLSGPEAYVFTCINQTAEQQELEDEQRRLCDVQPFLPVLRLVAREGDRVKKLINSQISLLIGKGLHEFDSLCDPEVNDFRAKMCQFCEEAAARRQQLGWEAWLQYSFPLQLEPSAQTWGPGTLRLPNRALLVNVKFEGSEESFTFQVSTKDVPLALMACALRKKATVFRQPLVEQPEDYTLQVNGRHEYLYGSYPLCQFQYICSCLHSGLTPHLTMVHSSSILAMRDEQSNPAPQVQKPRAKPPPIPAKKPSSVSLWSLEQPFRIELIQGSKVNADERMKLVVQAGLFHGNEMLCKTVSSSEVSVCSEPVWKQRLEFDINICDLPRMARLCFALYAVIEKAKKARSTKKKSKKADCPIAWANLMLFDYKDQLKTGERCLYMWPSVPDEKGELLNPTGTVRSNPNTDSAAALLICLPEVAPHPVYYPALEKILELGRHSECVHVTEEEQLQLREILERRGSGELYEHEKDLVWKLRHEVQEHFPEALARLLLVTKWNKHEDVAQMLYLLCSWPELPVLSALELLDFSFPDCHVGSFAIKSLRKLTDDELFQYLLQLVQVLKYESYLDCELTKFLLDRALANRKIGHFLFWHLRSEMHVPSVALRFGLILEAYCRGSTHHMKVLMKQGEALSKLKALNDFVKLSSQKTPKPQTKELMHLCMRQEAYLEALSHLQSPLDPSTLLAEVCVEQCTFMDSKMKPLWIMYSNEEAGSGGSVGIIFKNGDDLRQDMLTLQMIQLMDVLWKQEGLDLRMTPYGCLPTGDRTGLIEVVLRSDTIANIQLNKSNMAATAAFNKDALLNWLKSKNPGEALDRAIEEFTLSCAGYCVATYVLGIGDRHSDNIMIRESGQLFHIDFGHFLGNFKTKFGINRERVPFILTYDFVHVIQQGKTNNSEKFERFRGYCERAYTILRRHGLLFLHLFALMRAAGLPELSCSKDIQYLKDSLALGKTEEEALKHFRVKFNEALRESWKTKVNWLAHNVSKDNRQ

For the compound `Cc1nc2ccc(-c3ccc(OCC4(NC(=O)OC(C)(C)C)COC4)cc3)nn2c1-c1cnc(N)c(C(F)(F)F)c1` [Example 113, (3-{4-[3-(6-Amino-5-trifluoromethyl-pyridin-3-yl)-2-methyl-imidazo[1,2-b]pyridazin-6-yl]-phenoxymethyl}-oxetan-3-yl)-carbamic acid tert-butyl ester], the IC50 in assay [1] was > 9100 nM; in assay [2], 1010 nM; in assay [3], > 9100 nM; in assay [4], 5110 nM.
In the case of `Cc1nc2ccc(-c3ccc(OCC4(NC(=O)C(C)C)COC4)cc3)nn2c1-c1cnc(N)c(C(F)(F)F)c1` [Example 114, N-(3-{4-[3-(6-Amino-5-trifluoromethyl-pyridin-3-yl)-2-methyl-innidazo[1,2-b]pyridazin-6-yl]-phenoxymethyl}-oxetan-3-yl)-isobutyramide], the 50% inhibitory concentration (IC50) in assay [1] was 1520 nM; in assay [2], 49 nM; in assay [3], 8730 nM; in assay [4] it was 435 nM.
As for `COc1ccc(-c2ccc3nc(C)c(-c4ccnc(NCC5CC5)n4)n3n2)cc1OC` [Example 87, Cyclopropylmethyl-{4-[6-(3,4-dimethoxy-phenyl)-2-methyl-imidazo[1,2-b]pyridazin-3-yl]-pyrimidin-2-yl}-amine], the half-maximal inhibitory concentration (IC50) was 98 nM in assay [1], 296 nM in assay [2], > 9100 nM in assay [3] and 357 nM in assay [4].
Regarding `COc1cc(-c2ccc3nc(C)c(-c4cnc(N)c(C(F)(F)F)c4)n3n2)ccc1OCCNC(=O)c1cc(OC)c(OC)c(OC)c1` [Example 41], the IC50 was 933 nM in assay [1], 294 nM in assay [2], > 9100 nM in assay [3] and > 9100 nM in assay [4].
On to `COc1ccc(-c2ccc3nc(C)c(-c4ccc(N)nc4)n3n2)cc1OC` [Example 7], for which the concentration for half-maximal inhibition (IC50) came out at 419 nM in assay [1], 96 nM in assay [2], 976 nM in assay [3] and 694 nM in assay [4].
`Cc1nc2ccc(-c3ccc(OCCCN4CCCC4=O)cc3)nn2c1-c1cnc(N)c(C(F)(F)F)c1` [Example 105, 1-(3-{4-[3-(6-Amino-5-trifluoromethyl-pyridin-3-yl)-2-methyl-imidazo[1,2-b]pyridazin-6-yl]-phenoxy}-propyl)-pyrrolidin-2-one]: the concentration for half-maximal inhibition (IC50) in assay [1] worked out at 518 nM; in assay [2] it was 83 nM; in assay [3], 6260 nM; in assay [4] it was 273 nM.
The like results for `COc1cc(-c2ccc3nc(C)c(-c4cnc(N)c(C(F)(F)F)c4)n3n2)ccc1OCCCN` [Example 25, 5-{6-[4-(3-Amino-propoxy)-3-methoxy-phenyl]-2-methyl-imidazo[1,2-b]pyridazin-3-yl}-3-trifluoromethyl-pyridin-2-ylamine] were, in that order, 507 nM, 15 nM, 193 nM and 24 nM.
On to `COc1ccc(S(=O)(=O)n2ccc(-c3c(C)nc4ccc(-c5ccc(OC)c(OC)c5)nn34)n2)cc1` [Example 22, 6-(3,4-Dimethoxy-phenyl)-3-[1-(4-methoxy-benzenesulfonyl)-1H-pyrazol-3-yl]-2-methyl-imidazo[1,2-b]pyridazine], for which the IC50 in assay [1] was 1500 nM; in assay [2], 781 nM; in assay [3], > 9100 nM; in assay [4], 889 nM.
The like results for `COc1ccc(-c2ccc3nc(C)c(-c4ccc(N5CCOCC5)nc4)n3n2)cc1OC` [Example 5] were, in that order, 613 nM, 111 nM, 1570 nM and 1090 nM.
Consider `COc1cc(-c2ccc3nc(C)c(-c4ccc(S(C)(=O)=O)cc4)n3n2)ccc1OC1CCNCC1` [Example 101, 3-(4-Methanesulfonyl-phenyl)-6-[3-methoxy-4-(piperidin-4-yloxy)-phenyl]-2-methyl-imidazo[1,2-b]pyridazine], for which the 50% inhibitory concentration (IC50) in assay [1] is > 9100 nM; in assay [2], 1040 nM; in assay [3], > 9100 nM; in assay [4], 1180 nM.
For `COc1cc(-c2ccc3nc(C)c(-c4cnc(N)c(C(F)(F)F)c4)n3n2)ccc1OCCCN1CCCC1=O` [Example 77], the IC50 in assay [1] is 1260 nM; in assay [2] it was 75 nM; in assay [3], 3790 nM; in assay [4], 281 nM.
In the case of `COc1cc(-c2ccc3nc(C)c(-c4cnc(N)c(C(F)(F)F)c4)n3n2)ccc1OCCCN1CCNC1=O` [Example 96, 1-(3-{4-[3-(6-Amino-5-trifluoromethyl-pyridin-3-yl)-2-methyl-imidazo[1,2-b]pyridazin-6-yl]-2-methoxy-phenoxy}-propyl)-imidazolidin-2-one], the half-maximal inhibitory concentration (IC50) turned out to be 805 nM in assay [1], 31 nM in assay [2], 4860 nM in assay [3] and 424 nM in assay [4].
Regarding `COc1ccc(-c2ccc3nc(C)c(-c4ccn(S(=O)(=O)c5cccc(C#N)c5)n4)n3n2)cc1OC` [Example 23, 3-{3-[6-(3,4-Dimethoxy-phenyl)-2-methyl-imidazo[1,2-b]pyridazin-3-yl]-pyrazole-1-sulfonyl}-benzonitrile], the concentration for half-maximal inhibition (IC50) in assay [1] was 511 nM; in assay [2], 136 nM; in assay [3], > 9100 nM; in assay [4], 124 nM.
Consider `Cc1nc2ccc(-c3ccc(S(C)(=O)=O)cc3)nn2c1-c1cncc(C#N)c1` [Example 19, 5-[6-(4-Methanesulfonyl-phenyl)-2-methyl-imidazo[1,2-b]pyridazin-3-yl]-nicotinonitrile], for which the half-maximal inhibitory concentration (IC50) was determined as 5180 nM in assay [1], 1290 nM in assay [2], 12300 nM in assay [3] and 5500 nM in assay [4].
In the case of `COc1cccc(NC(=O)NCCCOc2cc(-c3ccc4nc(C)c(-c5cnc(N)c(C(F)(F)F)c5)n4n3)ccc2OC)c1` [Example 89, 1-(3-{5-[3-(6-Amino-5-trifluoromethyl-pyridin-3-yl)-2-methyl-imidazo[1,2-b]pyridazin-6-yl]-2-methoxy-phenoxy}-propyl)-3-(3-methoxy-phenyl)-urea], the 50% inhibitory concentration (IC50) was 6860 nM in assay [1], 1640 nM in assay [2], > 9100 nM in assay [3] and > 9100 nM in assay [4].
`COc1cc(-c2ccc3nc(C)c(-c4cnc(N)c(C(F)(F)F)c4)n3n2)ccc1OCCNC(=O)c1cccc(C#N)c1` [Example 27]: the half-inhibitory concentration (IC50) in assay [1] was 2280 nM; in assay [2] it was 456 nM; in assay [3] it was > 9100 nM; in assay [4], > 9100 nM.
Regarding `COc1ccc(-c2ccc3nc(C)c(-c4ccc(F)nc4)n3n2)cc1OC` [Example 1, 6-(3,4-Dimethoxy-phenyl)-3-(6-fluoro-pyridin-3-yl)-2-methyl-imidazo[1,2-b]pyridazine], the IC50 in assay [1] amounted to 241 nM; in assay [2], 206 nM; in assay [3], 1680 nM; in assay [4], 1350 nM.
Turning to `Cc1nc2ccc(-c3ccc4c(c3)OCO4)nn2c1-c1cnc2[nH]ccc2c1` [Example 109, 6-Benzo[1,3]dioxol-5-yl-2-methyl-3-(1H-pyrrolo[2,3-b]pyridin-5-yl)-imidazo[1,2-b]pyridazine], the half-inhibitory concentration (IC50) in assay [1] is > 9100 nM; in assay [2], 5910 nM; in assay [3] it was > 9100 nM; in assay [4] it was 3940 nM.
`COc1ccc(-c2ccc3nc(C)c(-c4cc[nH]n4)n3n2)cc1OC` [Example 20, 6-(3,4-Dimethoxy-phenyl)-2-methyl-3-(1H-pyrazol-3-yl)-imidazo[1,2-b]pyridazine]: the IC50 in assay [1] was determined as 358 nM; in assay [2], 220 nM; in assay [3], 3240 nM; in assay [4], 1390 nM.
